This note sets out measurements from patent US7491723B2, “Alkanol and cycloalkanol-amine derivatives and methods of their use” (Wyeth, priority 2003, dated 2009).

Where a name gives a salt, the structure may show the parent alone.

This experiment addresses T1, human hNET (Homo sapiens, UniProt P23975).
T1 construct: expressed in transfected cells
Kind of experiment: Norepinephrine (NE) uptake assay in MDCK-Net6 cells. It counts as cell-based. The note with it: 1 μM test compound, [3H]NE uptake. Here is the method:
MDCK-Net6 cells, stably transfected with human hNET (Pacholczyk, T., R. D. Blakely, and S. G. Amara, Nature, 1991, 350(6316): p. 350-4) were cultured in growth medium containing high glucose DMEM (Gibco, Cat. No. 11995), 10% FBS (dialyzed, heat-inactivated, US Bio-Technologies, Lot FBD1129HI) and 500 μg/ml G418 (Gibco, Cat. No. 10131). Cells were plated at 300,000/T75 flask and cells were split twice weekly. The JAR cell line (human placental choriocarcinoma) was purchased from ATCC (Cat. No. HTB-144). The cells were cultured in growth medium containing RPMI 1640 (Gibco, Cat. No. 72400), 10% FBS (Irvine, Cat. No. 3000), 1% sodium pyruvate (Gibco, Cat. No. 1136) and 0.25% glucose. Cells were plated at 250,000 cells/T75 flask and split twice weekly. For all assays, cells were plated in Wallac 96-well sterile plates (PerkinElmer, Cat. No. 3983498).
On day 1, cells were plated at 3,000 cells/well in growth medium and maintained in a cell incubator (37° C., 5% CO2). On day 2, growth medium was replaced with 200 μl of assay buffer (25 mM HEPES; 120 mM NaCl; 5 mM KCl; 2.5 mM CaCl2; 1.2 mM MgSO4; 2 mg/ml glucose (pH 7.4, 37° C.)) containing 0.2 mg/ml ascorbic acid and 10 μM pargyline. Plates containing cells with 200 μl of assay buffer were equilibrated for 10 minutes at 37° C. prior to addition of compounds. A stock solution of desipramine was prepared in DMSO (10 mM) and delivered to triplicate wells containing cells for a final test concentration of 1 μM. Data from these wells were used to define non-specific NE uptake (minimum NE uptake). Test compounds were prepared in DMSO (10 mM) and diluted in assay buffer according to test range (1 to 10,000 nM). Twenty-five microliters of assay buffer (maximum NE uptake) or test compound were added directly to triplicate wells containing cells in 200 μl of assay buffer. The cells in assay buffer with test compounds were incubated for 20 minutes at 37° C. To initiate the NE uptake, [^3H]NE diluted in assay buffer (120 nM final assay concentration) was delivered in 25 μl aliquots to each well and the plates were incubated for 5 minutes (37° C.). The reaction was terminated by decanting the supernatant from the plate. The plates containing cells were washed twice with 200 μl assay buffer (37° C.) to remove free radioligand. The plates were then inverted, left to dry for 2 minutes, then reinverted and air-dried for an additional 10 minutes. The cells were lysed in 25 μl of 0.25 N NaOH solution (4° C.), placed on a shake table and vigorously shaken for 5 minutes. After cell lysis, 75 μl of scintillation cocktail was added to each well and the plates were sealed with film tape. The plates were returned to the shake table and vigorously shaken for a minimum of 10 minutes to ensure adequate partitioning of organic and aqueous solutions. The plates were counted in a Wallac Microbeta counter (PerkinElmer) to collect the raw cpm data.
For each experiment, a data stream of cpm values collected from the Wallac Microbeta counter was downloaded to a Microsoft Excel statistical application program. Calculations of EC50 values were made using the transformed-both-sides logistic dose response program written by Wyeth Biometrics Department. The statistical program uses mean cpm values from wells representing maximum binding or uptake (assay buffer) and mean cpm values from wells representing minimum binding or uptake ((1 μM desipramine (hNET) or 1 μM paroxetine (hSERT)). Estimation of the EC50 value was completed on a log scale and the line was fit between the maximum and minimum binding or uptake values. All graphic data representation was generated by normalizing each data point to a mean percent based on the maximum and minimum binding or uptake values. The EC50 values reported from multiple experiments were calculated by pooling the raw data from each experiment and analyzing the pooled data as one experiment.

T1 sequence (P23975 whole entry): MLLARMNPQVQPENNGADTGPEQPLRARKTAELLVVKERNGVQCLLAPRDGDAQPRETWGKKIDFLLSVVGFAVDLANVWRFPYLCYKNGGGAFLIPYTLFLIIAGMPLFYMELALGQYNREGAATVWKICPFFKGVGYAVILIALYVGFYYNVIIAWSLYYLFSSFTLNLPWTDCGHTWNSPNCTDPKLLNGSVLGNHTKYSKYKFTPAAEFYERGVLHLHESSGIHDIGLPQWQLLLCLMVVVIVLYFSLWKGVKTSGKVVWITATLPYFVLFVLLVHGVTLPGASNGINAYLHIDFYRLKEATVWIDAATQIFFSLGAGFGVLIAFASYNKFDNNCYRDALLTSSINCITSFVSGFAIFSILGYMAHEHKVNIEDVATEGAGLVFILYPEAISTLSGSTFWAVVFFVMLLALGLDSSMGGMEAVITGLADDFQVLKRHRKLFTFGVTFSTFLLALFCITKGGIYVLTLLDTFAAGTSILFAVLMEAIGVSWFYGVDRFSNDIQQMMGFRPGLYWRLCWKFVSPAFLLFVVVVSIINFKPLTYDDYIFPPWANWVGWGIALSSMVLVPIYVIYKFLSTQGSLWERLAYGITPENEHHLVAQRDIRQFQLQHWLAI

`CN1CCC(O)(C(CN2CCNCC2)c2ccc(Cl)c(Cl)c2)CC1` (stereo not drawn) [Example 37, 4-[1-(3,4-dichlorophenyl)-2-piperazin-1-ylethyl]-1-methylpiperidin-4-ol trihydrochloride] registered an inhibition at 1 µM of 57%.

Take `CCC(O)(CC)C(CN1CCNCC1)c1cccc(Br)c1` (stereo not drawn) [Example 50, 2-(3-bromophenyl)-3-ethyl-1-piperazin-1-ylpentan-3-ol dihydrochloride]: the inhibition at 1 µM is 89%.

Regarding `CCCC(O)(CCC)C(CN1CCNCC1)c1cccc(Cl)c1` (stereo not drawn) [Example 51, 4-[1-(3-chlorophenyl)-2-piperazin-1-ylethyl]heptan-4-ol dihydrochloride], testing at 1 µM gave an inhibition of 44%. Next, `CCC(O)(CC)C(CN1CCNCC1)c1cccc(Cl)c1` (stereo not drawn) [Example 52, 2-(3-chlorophenyl)-3-ethyl-1-piperazin-1-ylpentan-3-ol dihydrochloride]: 37%. Next, `CN1CCC(O)(C(CN2CCNCC2)c2cccc(Br)c2)CC1` (stereo not drawn) [Example 58, 4-[1-(3-bromophenyl)-2-piperazin-1-ylethyl]-1-methylpiperidin-4-ol dihydrochloride]: 35%. For `CCC(O)(CC)C(CN1CCNCC1)c1ccc(OC)c(Br)c1` (stereo not drawn) [Example 65, 2-(3-bromo-4-methoxyphenyl)-3-ethyl-1-piperazin-1-ylpentan-3-ol dihydrochloride], the inhibition at 1 µM was found to be 12%.

As for `CCC(O)(CC)C(CN1CCN(C)CC1)c1ccc(OC)c(Br)c1` (stereo not drawn) [Example 66, 2-(3-bromo-4-methoxyphenyl)-3-ethyl-1-(4-methylpiperazin-1-yl)pentan-3-ol dihydrochloride], the inhibition at 1 µM stood at 26%. Next, `OC1(C(CN2CCNCC2)c2cccc(Cl)c2)CCCC2CCCCC21` (stereo not drawn) [Example 72, 1-[1-(3-chlorophenyl)-2-piperazin-1-ylethyl]decahydronaphthalen-1-ol dihydrochloride]: 25%; `COc1ccc(C(CN2CCN(C)CC2)C2(O)CCC(C(C)(C)C)CC2)cc1Br` (stereo not drawn) [Example 73, 1-[1-(3-bromo-4-methoxyphenyl)-2-(4-methylpiperazin-1-yl)ethyl]-4-tert-butylcyclohexano dihydrochloride]: 25%. Next, `OC1(C(CN2CCNCC2)c2cccc(Cl)c2)CCC2CCCCC2C1` (stereo not drawn) [Example 74, 2-[1-(3-chlorophenyl)-2-piperazin-1-ylethyl]decahydronaphthalen-2-ol dihydrochloride]: 24%; `OC1(C(CN2CCNCC2)c2cccc(Cl)c2)CCOCC1` (stereo not drawn) [Example 77, 4-[1-(3-chlorophenyl)-2-piperazin-1-ylethyl]tetrahydro-2H-pyran-4-ol dihydrochloride]: 31%; `CN1CCN(CC(c2cccc(Cl)c2)C2(O)CCOCC2)CC1` (stereo not drawn) [Example 78, 4-[1-(3-chlorophenyl)-2-(4-methylpiperazin-1-yl)ethyl]tetrahydro-2H-pyran-4-ol dihydrochloride]: 22%. `CN1CCN(CC(c2cccc(Br)c2)C2(O)CCC(C(C)(C)C)CC2)CC1` (stereo not drawn) [Example 79, 1-[1-(3-bromophenyl)-2-(4-methylpiperazin-1-yl)ethyl]4-tert-butylcyclohexanol dihydrochloride]: the inhibition at 1 µM was found to be 20%. The figure for `CCCC(O)(CCC)C(CN1CCNCC1)c1cccc(Br)c1` (stereo not drawn) [Example 81, 4-[1-(3-bromophenyl)-2-piperazin-1-ylethyl]heptan-4-ol dihydrochloride] is 18%; for `CCCC(O)(CCC)C(CN1CCN(C)CC1)c1cccc(Br)c1` (stereo not drawn) [Example 82, 4-[1-(3-bromophenyl)-2-(4-methylpiperazin-1-yl)ethyl]heptan-4-ol dihydrochloride] it is 19%; for `COc1ccc(C(CN2CCNCC2)C2(O)CCC(C(C)(C)C)CC2)cc1Br` (stereo not drawn) [Example 84, 1-[1-(3-bromo-4-methoxyphenyl)-2-piperazin-1-ylethyl]4-tert-butylcyclohexanol dihydrochloride] it is 18%.

`CN1CCN(CC(c2cccc(Cl)c2)C(O)(C2CC2)C2CC2)CC1` (stereo not drawn) [Example 86, 2-(3-chlorophenyl)-1,1-dicyclopropyl-3-(4-methylpiperazin-1-yl)propan-1-ol dihydrochloride] returned an inhibition at 1 µM of 16%. `CN1CCN(CC(c2cccc(Br)c2)C2(O)CC(C)(C)CC(C)(C)C2)CC1` (stereo not drawn) [Example 88, 1-[1-(3-bromophenyl)-2-(4-methylpiperazin-1-yl)ethyl]-3,3,5,5-tetramethylcyclohexanol dihydrochloride] displayed an inhibition at 1 µM of 16%. Compound `CC(C)(C)C1CCC(O)(C(CN2CCNCC2)c2cccc(Cl)c2)CC1` (stereo not drawn) [Example 93, 4-tert-butyl-1-[1-(3-chlorophenyl)-2-piperazin-1-ylethyl]cyclohexanol dihydrochloride] yielded an inhibition at 1 µM of 12%.

On to `Clc1cccc(C(CN2CCNCC2)C2CCCC2)c1` (stereo not drawn) [Example 226, 1-[2-(3-chlorophenyl)-2-cyclopentylethyl]piperazine dihydrochloride], for which 1 µM produced 53% inhibition.

The compound `CN1CCN(CC(c2cccc(Cl)c2)C2CCCC2)CC1` (stereo not drawn) [Example 227, 1-[2-(3-chlorophenyl)-2-cyclopentylethyl]-4-methylpiperazine dihydrochloride] yielded an inhibition at 1 µM of 48.2%. As for `Clc1cccc(C(CN2CCNCC2)C2CCCCC2)c1` (stereo not drawn) [Example 230, 1-[2-(3-chlorophenyl)-2-cyclohexylethyl]piperazine dihydrochloride], 1 µM produced 88.3% inhibition. Next, `CN1CCN(CC(c2cccc(Cl)c2)C2CCCCC2)CC1` (stereo not drawn) [Example 231, 1-[2-(3-chlorophenyl)-2-cyclohexylethyl]-4-methylpiperazine dihydrochloride]: 91.2%; `Clc1cccc(C(CN2CCNCC2)C2CCCCCC2)c1` (stereo not drawn) [Example 234, 1-[2-(3-chlorophenyl)-2-cycloheptylethyl]piperazine dihydrochloride]: 67.7%; `CN1CCN(CC(c2cccc(Cl)c2)C2CCCCCC2)CC1` (stereo not drawn) [Example 235, 1-[2-(3-chlorophenyl)-2-cycloheptylethyl]-4-methylpiperazine dihydrochloride]: 80.5%. Next, `OC1CCCCC1C(CN1CCNCC1)c1cccc(Cl)c1` (stereo not drawn) [Example 238, 2-[1-(3-chlorophenyl)-2-piperazin-1-ylethyl]cyclohexanol dihydrochloride]: 72.9%; `CC(C)(O)C(CN1CCNCC1)c1cccc(Cl)c1` (stereo not drawn) [Example 275, 3-(3-chlorophenyl)-2-methyl-4-piperazin-1-ylbutan-2-ol dihydrochloride]: 31%. Next, `CN1CCN(CC(c2cccc(Cl)c2)C(C)(C)O)CC1` (stereo not drawn) [Example 276, 3-(3-chlorophenyl)-2-methyl-4-(4-methylpiperazin-1-yl)butan-2-ol dihydrochloride]: 4%.

As to `CC1(C)CC(C)(C)CC(O)(C(CN2CCNCC2)c2cccc(Cl)c2)C1` (stereo not drawn) [Example 277, 1-[1-(3-chlorophenyl)-2-piperazin-1-ylethyl]-3,3,5,5-tetramethylcyclohexanol dihydrochloride], the inhibition at 1 µM is 17%. The figure for `CN1CCN(CC(c2cccc(Cl)c2)C2(O)CC(C)(C)CC(C)(C)C2)CC1` (stereo not drawn) [Example 278, 1-[1-(3-chlorophenyl)-2-(4-methylpiperazin-1-yl)ethyl]-3,3,5,5-tetramethylcyclohexanol dihydrochloride] is 25%.
